Measured values reported in US9345677B2, “Compositions, methods and kits relating to HER-2 cleavage” (Incyte Corporation, priority 2003, dated 2016).
pIC50: −log10 of the molar value.

Legend:
ADAM10 = molecular target: T1, ADAM10 (Homo sapiens, UniProt O14672); test: ADAM10 fluorogenic peptide biochemical assay
T1 construct: purchased R&D Systems 936-AD
T1 sequence (O14672 214-748): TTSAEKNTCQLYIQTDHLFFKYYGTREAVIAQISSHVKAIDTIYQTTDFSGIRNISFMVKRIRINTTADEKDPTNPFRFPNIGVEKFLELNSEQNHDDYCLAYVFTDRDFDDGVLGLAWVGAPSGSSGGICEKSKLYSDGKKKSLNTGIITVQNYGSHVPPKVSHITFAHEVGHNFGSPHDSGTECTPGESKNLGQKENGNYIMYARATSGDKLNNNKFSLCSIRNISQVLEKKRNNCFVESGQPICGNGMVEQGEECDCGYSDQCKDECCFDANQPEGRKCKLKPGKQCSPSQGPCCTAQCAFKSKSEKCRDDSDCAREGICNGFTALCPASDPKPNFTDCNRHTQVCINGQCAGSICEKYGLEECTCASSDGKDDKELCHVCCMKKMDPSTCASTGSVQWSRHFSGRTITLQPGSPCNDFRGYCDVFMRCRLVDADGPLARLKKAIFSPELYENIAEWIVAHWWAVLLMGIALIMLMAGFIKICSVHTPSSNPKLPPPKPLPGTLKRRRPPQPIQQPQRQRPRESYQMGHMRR
Protocol: 5 mM Compound stock was prepared in DMSO. Compound plate was prepared by 2-fold dilution for 11-point curve, with highest concentration of 500 μM. 1 μL of compound in DMSO was transferred from compound plate to the assay plate. Enzyme solution was prepared in assay buffer with a concentration of 100 ng/50 μL. Substrate ((7-methoxycoumarin-4-yl)-acetyl-Pro-Leu-Ala-Gln-Ala-Val-(3-[2,4-dinitrophenyl]-L-2,3-diaminopropionyl)-Arg-Ser-Ser-Ser-Arg-NH2 (SEQ ID NO:48)) solution was prepared in assay buffer with a concentration of 20 μM. 50 μL of enzyme solution was added to the assay plate. The assay plate was incubated for 5 minutes. 50 μL of substrate solution was then added to the assay plate. The plate was protected from light and incubated at 37° C. for 4 hours. The reaction was stopped by adding 10 μL of 500 mM EDTA solution. The plate was read on a plate reader with excitation of 320 nm and emission of 405 nm.
Source of enzymes for biochemical assays: Except for ADAM17 and MT1-MMP, all recombinant human MMPs and ADAMs were obtained from R&D Systems (Minneapolis, Minn.). […]
In general, 5 mM compound stock was prepared in DMSO. […] The plate was read on a plate reader with excitation of 320 nm and emission of 405 nm. Percentage of inhibition was calculated for each concentration and IC50 value was generated from curve fitting. […]

MMP2 = molecular target: T2, MMP2 (Homo sapiens, UniProt P08253); test: MMP2 fluorogenic peptide biochemical assay
T2 construct: purchased R&D Systems 902-MP
T2 sequence (P08253 110-660): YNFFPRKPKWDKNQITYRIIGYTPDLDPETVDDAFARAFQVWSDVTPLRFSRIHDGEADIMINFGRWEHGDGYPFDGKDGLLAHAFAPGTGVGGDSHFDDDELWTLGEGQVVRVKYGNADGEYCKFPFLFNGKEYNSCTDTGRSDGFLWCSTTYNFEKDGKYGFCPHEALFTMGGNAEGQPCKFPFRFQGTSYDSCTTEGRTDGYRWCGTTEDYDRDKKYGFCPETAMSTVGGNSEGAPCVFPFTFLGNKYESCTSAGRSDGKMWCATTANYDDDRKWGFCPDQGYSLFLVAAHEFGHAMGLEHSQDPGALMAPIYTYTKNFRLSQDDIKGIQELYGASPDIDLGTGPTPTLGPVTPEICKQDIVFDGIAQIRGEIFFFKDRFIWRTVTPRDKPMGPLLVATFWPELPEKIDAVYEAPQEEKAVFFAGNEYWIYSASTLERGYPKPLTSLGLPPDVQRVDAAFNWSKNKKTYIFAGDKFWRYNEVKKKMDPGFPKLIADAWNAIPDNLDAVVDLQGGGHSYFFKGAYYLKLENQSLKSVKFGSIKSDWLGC
Source text: Substrates for biochemical assays: Fluorogenic Peptide substrate, (7-methoxycoumarin-4-yl)acetyl-Pro-Leu-Gly-Leu-(3-[2,4-dinitrophenyl]-L-2,3-diaminopropionyl)-Ala-Arg-NH2 (SEQ ID NO: 46), was obtained from R&D Systems (Minneapolis, Minn.) with a catalog number of ES001. It was used as substrate for MMP1, MMP2, MMP7, MMP8, MMP9, MMP12, MMP13, and MT1-MMP.
Biochemical Assays: In general, assay buffer conditions were chosen based on obtaining optimal enzymatic activities. The specific assay buffer conditions are summarized as following. For MMP1, MMP2, MMP3, MMP7, and MMP12, the assay buffer contains 50 mM Tricine, 10 mM NaCl, 10 mM CaCl2, 1.0 mM ZnCl2, pH 7.4.
To activate MMP enzymes, 10 or 20 μg of lyophilized Pro-MMPs are dissolved in 100 μL of water. 100 mM p-aminophenylmercuric acetate (APMA) stock in DMSO is added to Pro-MMPs to give 1.0 mM final concentration. Incubate enzyme with APMA at 37° C. for a period time specified below.

In the case of `Cc1cc([N+](=O)[O-])ccc1N1CCN(C(=O)[C@@H]2[C@@H](C(=O)NO)CC3(CC3)CN2C)CC1` [Compound 5, (6S,7S)-N-hydroxy-5-methyl-6-{[4-(2-methyl-4-nitrophenyl)piperazin-1-yl]-carbonyl}-5-azaspiro[2.5]octane-7-carboxamide], the pIC50 (ADAM10) was 7.01 and the MMP2 activity (MMP2) was “inactive”.
